Source: patent US4061776A, “Pharmaceutically active 2-omega-aminoalkoxydiphenyl ethers” (Mitsubishi Chemical Industries Ltd., priority 1976, dated 1977)
Counter-ions that a name gives are not always drawn.

Experiments:
[1] = test system: reserpine induced hypothermia; test: antagonism of reserpine (5 mg/kg i.p.) induced hypothermia (antireserpine/antidepressant activity) in mice; assay type: in vivo; conditions: for Antireserpine Activity in Mice, Relative Potency: reserpine 5 mg/kg i.p., Amitriptyline = 1; for antidepressant activity (in words): reserpine hypothermia
Protocol: (§1) The compounds were administered intraperitoneally and activities of the compounds were compared with those of Amitriptyline.

in vivo = conditions: mouse, ip
tremorine induced tremor [2] = conditions: mouse, in vivo, ip
Protocol: as §1

[3] = test system: electroshock induced tonic extensor; test: anticonvulsant activity, antagonism of electroshock induced tonic extensor in mice; assay type: in vivo; conditions: Mus musculus, ip, dose preventing 50% of response, read-out: Anti-Convulsant Activity ED50
Protocol: as §1

tremorine induced tremor [4] = test: central anticholinergic effect, tremorine induced tremor in mice; conditions: Mus musculus, ip, read-out: Antitremorine Effect ED50
Protocol: as §1

[5] = test system: spontaneous motor activity; test: CNS depressant activity, spontaneous motor activity measured by ANIMEX apparatus in mice; conditions: Mus musculus, ip, read-out: Spontaneous Motor Activity Depression ED50
Protocol: as §1

[6] = test system: neurological deficit as measured by traction test; conditions: mouse, in vivo, ip
Protocol: as §1

mice = conditions: i.p.
[7] = test system: neurological deficit as measured by traction test; test: CNS depressant activity, neurological deficit by traction test (muscle relaxant action) in mice; conditions: Mus musculus, ip, read-out: Muscle Relaxant Action ED50
Protocol: as §1

| SMILES | Antireserpine Activity in Mice, Relative Potency [1] | LD50 (in vivo) | antidepressant activity (in words) [1] | further results |
| --- | --- | --- | --- | --- |
| CN(C)CCCOc1ccccc1Oc1ccccc1 [2-(3-dimethylaminopropoxy)diphenyl ether hydrochloride, reference compound] | 0.14 | – | – | – |
| CNCCCCOc1ccccc1Oc1ccccc1 [2-(4-methylaminobutoxy)diphenyl ether hydrochloride] | 1.10 | 100 mg/kg | best activity of all compounds of the present invention tested | anticholinergic action (in words) (tremorine induced tremor [2]): weak; antireserpine activity compared with Amitriptyline (in words) ([1]; versus Amitriptyline): comparable to that of Amitriptyline; ED50 [3]: 32 mg/kg; ED50 (tremorine induced tremor [4]): 30 mg/kg; ED50 [5]: 60 mg/kg; CNS depressant action (in words) [6]: weak; toxicity (in words) (mice): low toxicity; ED50 [7]: 60 mg/kg |
| CN(C)CCCCOc1ccccc1Oc1ccccc1 [2-(4-dimethylaminobutoxy)diphenyl ether hydrochloride] | 0.58 | 92 mg/kg | best activity of all compounds of the present invention tested | – |
| CN(C)CCC=C1c2ccccc2CCc2ccccc21 [Amitriptyline, reference compound] | – | – | – | LD50 (mice; Litchfield-Wilcoxon method): 65 mg/kg i.p. |
| NCCCCOc1ccccc1Oc1ccccc1 [2-(4-aminobutoxy)diphenyl ether hydrochloride] | 0.28 | – | – | – |
| c1ccc(Oc2ccccc2OCCCCN2CCOCC2)cc1 [2-(4-morpholinobutoxy)diphenyl ether hydrochloride, reference compound] | 0.21 | – | – | – |
| CNCCCCCOc1ccccc1Oc1ccccc1 [2-(5-methylaminopentyloxy)diphenyl ether hydrochloride] | 0.57 | 85 mg/kg | best activity of all compounds of the present invention tested | – |
| CNCCCOc1ccccc1Oc1ccccc1 [2-(3-methylaminopropoxy)diphenyl ether hydrochloride, reference compound] | 0.28 | – | – | – |
| CN(C)CCCCCOc1ccccc1Oc1ccccc1 [2-(5-dimethylaminopentyloxy)diphenyl ether hydrochloride] | 0.24 | – | – | – |
